# Measurements: US20090247542A1, “SYNTHESES AND PREPARATIONS OF POLYMORPHS OF CRYSTALLINE ARIPIPRAZOLE” (MEDICHEM, S.A., priority 2005, published 2009)
# Test: Hygroscopicity measurements (water content by Karl Fisher after humid storage)
# Format: physicochemical
# Details: for Hygroscopicity: water content (Karl Fisher) after 24 hours at 60° C./100% RH, then 24 hours at room temperature and about 30% RH
# Protocol: vii. Hygroscopicity Measurements
# One gram of the sample was accurately weighed in a weighing bottle (diameter 5 cm), covered with kimwipes and left to rest in 60° C./100% RH environment (water/dessicator). 24 hours later, the weighing bottle was removed, transferred to an environment of room temperature and about 30% RH (magnesium chloride hexahydrate saturated water solution/dessicator) and left to rest for 24 hours and the water content of the sample was measured by the Karl Fisher method.
SMILES,Hygroscopicity,low hygroscopicity (moisture content) (after storing anhydrous aripiprazole Form J for 24 hours at 60° C. and a humidity level of 100%)
"O=C1CCc2ccc(OCCCCN3CCN(c4cccc(Cl)c4Cl)CC3)cc2N1 [Reference Example 2, 7-{4-[4-(2,3-dichlorophenyl)-1-piperazinyl]-butoxy}-3,4-dihydrocarbostyril, reference compound]",0.35%,–
"O=C1CCc2ccc(OCCCCN3CCN(c4cccc(Cl)c4Cl)CC3)cc2N1 [Example 1, 7-{4-[4-(2,3-dichlorophenyl)-1-piperazinyl]-butoxy}-3,4-dihydrocarbostyril]",0.06%,–
"O=C1CCc2ccc(OCCCCN3CCN(c4cccc(Cl)c4Cl)CC3)cc2N1 [aripiprazole Form J, 7-{4-[4-(2,3-dichlorophenyl)-1-piperazinyl]-butoxy}-3,4-dihydrocarbostyril]",–,≤ 0.5%
